US7414140B2 (Teva Pharmaceutical Industries Ltd., priority 2003, dated 2008)

Assay: Solubility of fluvastatin sodium in solvents
Type: physicochemical
Conditions: in water at 100° C.; read-out: Concentration of solution obtainable (solubility)
Excerpt: Fluvastatin sodium Form XLI can be prepared by precipitating fluvastatin sodium from a mixture of water and acetonitrile. Fluvastatin sodium should first be dissolved in water. The water may be heated in order to produce a more concentrated solution and maximized recovery of Form XLI. […] The addition is done at whatever elevated temperature was used to dissolve the starting material or at higher temperature. The addition is dropwise and will generally require adding a excess of acetonitrile over the amount of water that was used. For example, we used a little less than four volumes of acetonitrile. The resulting heterogeneous mixture is then allowed to cool. Before isolating the fluvastatin sodium Form XLI that precipitates. The recovery can be improved by adding an addition portion of acetonitrile after cooling.
Fluvastatin sodium Form L can be prepared by precipitation from a mixture of methanol and ethyl acetate. The fluvastatin sodium starting material, in any crystalline form or amorphous, should first be dissolved in the methanol. […] The starting material can be dissolved either at ambient or elevated temperature, e.g. the boiling point of methanol. Once dissolved, precipitation of Form L is induced by dropwise addition of ethyl acetate to the solution at elevated temperature. The amount of ethyl acetate used is preferably about three times the volume of methanol. […]

solubility: ≥ 375 mg/mL
Compound: CC(C)n1c(/C=C/C(O)CC(O)CC(=O)O)c(-c2ccc(F)cc2)c2ccccc21 (stereo not drawn) [Fluvastatin sodium, [R*,S*-(E)]-(±)-7-[3-(4-fluorophenyl)-1-(1-methylethyl)-1H-indol-2-yl]-3,5-dihydroxy-6-heptenoic acid monosodium]
